The numbers were not newly measured in patent US20240050950A1, “GRADIENT-BASED MICROFLUIDIC CIRCUIT, DEVICE, AND METHOD FOR PERFORMING AN ASSAY” (priority 2020, published 2024), which cites them from elsewhere.

The structures appear in SMILES notation. Counter-ions that a name gives are not always drawn. Like-named read-outs stand apart in the source and are kept apart here. Bridge positions count the residues as written; N and C are the ends. Square brackets hold non-standard residues; d marks the D form. Peptide text beside a SMILES is read from it. * marks the point of attachment. Ileψ(thiazoline)Cys = CC[C@H](C)[C@H](N)C1=N[C@H](C(=O)*)CS1; dOrn = NCCC[C@@H](N)C(=O)O

The conditions of this series: cited from earlier work.
Where [1] appears, read: Table 1, antimicrobial agents/drugs.

With `CC[C@H]1OC(=O)[C@H](C)[C@@H](O[C@H]2C[C@@](C)(OC)[C@@H](O)[C@H](C)O2)[C@H](C)[C@@H](O[C@@H]2O[C@H](C)C[C@H](N(C)C)[C@H]2O)[C@](C)(O)C[C@@H](C)CN(C)[C@H](C)[C@@H](O)[C@]1(C)O` [Azithromycin], the Molar volume under setting [1] was 632.6 ± 5.0 cm^3. Regarding `CC[C@H](C)[C@H](N)C1=N[C@H](C(=O)N[C@@H](CC(C)C)C(=O)N[C@H](CCC(=O)O)C(=O)N[C@H](C(=O)N[C@H]2CCCCNC(=O)[C@H](CC(N)=O)NC(=O)[C@@H](CC(=O)O)NC(=O)[C@H](Cc3cnc[nH]3)NC(=O)[C@@H](Cc3ccccc3)NC(=O)[C@H]([C@@H](C)CC)NC(=O)[C@@H](CCCN)NC2=O)[C@@H](C)CC)CS1` [Bacitracin] ({Ileψ(thiazoline)Cys}-L[dE]IK[dOrn]I[dF]H[dD]N; lactam 4-C), the Molar volume under setting [1] is on record as 994.4 ± 7.0 cm^3. Take `CO/C1=C\C(C)=C\[C@@H](C)[C@@H](O)[C@@H](C)C/C(C)=C/C=C/[C@H](OC)[C@@H]([C@@H](C)[C@@H](O)[C@H](C)[C@@]2(O)C[C@@H](O)[C@H](C)[C@@H](C(C)C)O2)OC1=O` [Bafilomycin A1 (4730700), Bafilomycin A1]: the Molar volume under setting [1] is recorded as 552.3 ± 5.0 cm^3. For `CO/C1=C\C(C)=C\[C@@H](C)[C@@H](O)[C@@H](C)C/C(C)=C/C=C/[C@H](OC)[C@@H]([C@@H](C)[C@@H](O)[C@H](C)[C@@]2(O)C[C@@H](OC(=O)/C=C/C(=O)NC3=C(O)CCC3=O)[C@H](C)[C@@H](C(C)C)O2)OC1=O` [Bafilomycin B1], the Molar volume under setting [1] is 667.1 ± 5.0 cm^3. Regarding `O=C(/C=C/c1cccc(S(=O)(=O)Nc2ccccc2)c1)NO` [Beleodaq (Belinostat), Belinostat], the Molar volume (Table 2, anticancer drugs) is on record as 222.9 ± 3.0 cm^3. As for `CC(C)C[C@H](NC(=O)[C@@H](O)[C@H](N)Cc1ccccc1)C(=O)O` [Bestatin (Ubenimex), Bestatin], under setting [1], the Molar volume is 257.5 ± 3.0 cm^3. For `C=C(c1ccc(C(=O)O)cc1)c1cc2c(cc1C)C(C)(C)CCC2(C)C` [Bexarotene (Targretin), Bexarotene], the Molar volume (Table 2, anticancer drugs) is listed as 334.2 ± 3.0 cm^3. With `Cn1cnc2c(F)c(Nc3ccc(Br)cc3F)c(C(=O)NOCCO)cc21` [Binimetinib], the Molar volume (Table 2, anticancer drugs) is 264.1 ± 7.0 cm^3. `Oc1c(Cl)cc(Cl)cc1Sc1cc(Cl)cc(Cl)c1O` [Bithionol]: the Molar volume under setting [1] is 202.7 ± 5.0 cm^3. `CN(CC[C@H](N)CC(=O)N[C@H]1C=C[C@H](n2ccc(N)nc2=O)O[C@@H]1C(=O)O)C(=N)N` [Blasticidine (Blasticidin S), Blasticidin S]: the Molar volume under setting [1] is on record as 261.9 ± 7.0 cm^3. With `C[C@@H]1C[C@H](C)C[C@H](C)[C@@H](O)CC(=O)O[C@H]([C@@H]2CCC[C@H]2C(=O)O)C/C=C/C=C(/C#N)[C@H](O)[C@@H](C)C1` [Borrelidin], the Molar volume under setting [1] is 426.5 ± 5.0 cm^3. Regarding `CC(C)C[C@H](NC(=O)[C@H](Cc1ccccc1)NC(=O)c1cnccn1)B(O)O` [Bortezomib (Velcade), Bortezomib], the Molar volume (Table 2, anticancer drugs) was 316.5 ± 3.0 cm^3.

In the case of `COC(=O)N[C@@H](C)CNc1nccc(-c2cn(C(C)C)nc2-c2cc(Cl)cc(NS(C)(=O)=O)c2F)n1` [Braftovi (Encorafenib), Encorafenib], the Molar volume (Table 2, anticancer drugs) is reported as 371.6 ± 7.0 cm^3. Consider `C[C@H]1CCC/C=C/[C@@H]2C[C@H](O)C[C@H]2[C@H](O)/C=C/C(=O)O1` [Brefeldin A], for which, under setting [1], the Molar volume is given as 252.9 ± 3.0 cm^3. Turning to `CS(=O)(=O)OCCCCOS(C)(=O)=O` [Busulfan], the Molar volume (Table 2, anticancer drugs) was 182.3 ± 3.0 cm^3. With `CO[C@H]1C(=O)[C@]2(C)[C@@H](OC)C[C@H]3OC[C@@]3(OC(C)=O)[C@H]2[C@H](OC(=O)c2ccccc2)[C@]2(O)C[C@H](OC(=O)[C@H](O)[C@@H](NC(=O)OC(C)(C)C)c3ccccc3)C(C)=C1C2(C)C` [Cabazitaxel], the Molar volume (Table 2, anticancer drugs) was 635.1 ± 5.0 cm^3. As for `COc1cc(/C=N/O)nc(-c2ccccn2)c1` [Caerulomycin A], the Molar volume under setting [1] was 185.8 ± 7.0 cm^3. For the compound `CCCCCOC(=O)Nc1nc(=O)n([C@@H]2O[C@H](C)[C@@H](O)[C@H]2O)cc1F` [Capecitabine (Xeloda), Capecitabine], the Molar volume (Table 2, anticancer drugs) is 240.5 ± 7.0 cm^3. For `O=c1[nH]cc(F)c(=O)[nH]1` [Carac (Fluorouracil-Topical, Tolak), Fluorouracil], the Molar volume (Table 2, anticancer drugs) is 84.5 ± 5.0 cm^3. Take `CC(C)C[C@H](NC(=O)[C@H](CCc1ccccc1)NC(=O)CN1CCOCC1)C(=O)N[C@@H](Cc1ccccc1)C(=O)N[C@@H](CC(C)C)C(=O)[C@@]1(C)CO1` [Carfilzomib (Kyprolis), Carfilzomib]: where the note is “Table 2, anticancer drugs”, the Molar volume is reported as 619.5 ± 3.0 cm^3. With `CC[C@H](C)C[C@H](C)CCCCCCCCC(=O)N[C@H]1C[C@@H](O)[C@@H](NCCN)NC(=O)[C@@H]2[C@@H](O)CCN2C(=O)[C@H]([C@H](O)CCN)NC(=O)[C@H]([C@H](O)[C@@H](O)c2ccc(O)cc2)NC(=O)[C@@H]2C[C@@H](O)CN2C(=O)[C@H]([C@@H](C)O)NC1=O` [Caspofungin], the Molar volume (Table 3, antifungal drugs and other molecules) was 803.3 cm^3. In the case of `N[C@@H](C(=O)N[C@@H]1C(=O)N2C(C(=O)O)=C(Cl)CS[C@H]12)c1ccccc1` [Cefaclor], under setting [1], the Molar volume is recorded as 226.4 ± 5.0 cm^3.

On to `CC1=C(C(=O)O)N2C(=O)[C@@H](NC(=O)[C@H](N)c3ccccc3)[C@H]2SC1` [Cefalexin], for which, under setting [1], the Molar volume is 231.3 ± 5.0 cm^3. For `CO[C@@]1(NC(=O)CSCC#N)C(=O)N2C(C(=O)O)=C(CSc3nnnn3C)CS[C@@H]21` [Cefmetazole], under setting [1], the Molar volume is on record as 268.3 ± 7.0 cm^3. Consider `NC(=O)c1cc[n+](CC2=C(C(=O)O)N3C(=O)[C@@H](NC(=O)[C@@H](c4ccccc4)S(=O)(=O)[O-])[C@H]3SC2)cc1` [Cefsulodin (Ulfaret), Cefsulodin], for which, under setting [1], the Molar volume is listed as 316.5 ± 7.0 cm^3. Consider `CC(C)(O/N=C(\C(=O)N[C@@H]1C(=O)N2C(C(=O)[O-])=C(C[n+]3ccccc3)CS[C@H]12)c1csc(N)n1)C(=O)O` [Ceftazidime], for which the Molar volume under setting [1] is on record as 330.2 ± 7.0 cm^3.

Consider `CO/N=C(\C(=O)N[C@@H]1C(=O)N2C(C(=O)O)=C(CSc3nc(=O)c(=O)[nH]n3C)CS[C@H]12)c1csc(N)n1` [Ceftriaxone], for which, under setting [1], the Molar volume is reported as 281.7 ± 7.0 cm^3. Regarding `C/C=C(\C)C(=O)N[C@@H](c1ccccc1)[C@@H](O)C(=O)O[C@H]1C[C@@]2(O)[C@@H](OC(=O)c3ccccc3)[C@@H]3[C@]4(OC(C)=O)CO[C@@H]4C[C@H](O)[C@@]3(C)C(=O)[C@H](OC(C)=O)C(=C1C)C2(C)C` [Cephalomannine (NSC 318735), Cephalomannine], the Molar volume under setting [1] is listed as 609.9 ± 5.0 cm^3. As for `CC(=O)OCC1=C(C(=O)O)N2C(=O)[C@@H](NC(=O)Cc3cccs3)[C@H]2SC1` [Cephalothin (Cefalotin), Cephalothin], the Molar volume under setting [1] is listed as 252.7 ± 5.0 cm^3.

With `CC1=C(C(=O)O)N2C(=O)[C@@H](NC(=O)[C@H](N)C3=CCC=CC3)[C@H]2SC1` [Cephradine (Cefradine), Cephradine], the Molar volume under setting [1] is 237.2 ± 5.0 cm^3. Regarding `Cc1cc(Nc2ncc(Cl)c(Nc3ccccc3S(=O)(=O)C(C)C)n2)c(OC(C)C)cc1C1CCNCC1` [Ceritinib (Zykadia), Ceritinib], the Molar volume (Table 2, anticancer drugs) is 445.9 ± 3.0 cm^3. In the case of `COc1cccc2c1C(=O)c1c(O)c3c(c(O)c1C2=O)C[C@@](O)(C(C)=O)C[C@@H]3O[C@H]1C[C@H](N)[C@H](O)[C@H](C)O1` [Cerubidine (Daunorubicin Hydrochloride), Daunorubicin Hydrochloride], for the setting “Table 2, anticancer drugs”, the Molar volume is 339.4 ± 5.0 cm^3. As for `C/C=C/C/C=C/CCC(=O)[C@H]1O[C@H]1C(N)=O` [Cerulenin], the Molar volume under setting [1] is given as 196.7 ± 3.0 cm^3. Consider `O=C(O)CCCc1ccc(N(CCCl)CCCl)cc1` [Chlorambucil], for which the Molar volume (Table 2, anticancer drugs) is 243.6 ± 3.0 cm^3. With `[H]/N=C(\N/C(=N/[H])NCCCCCCNC(=N)NC(=N)Nc1ccc(Cl)cc1)Nc1ccc(Cl)cc1` [Chlorhexidine], the Molar volume under setting [1] is recorded as 363.3 ± 7.0 cm^3. As for `CO[C@@H]1[C@H](O)C[C@@H](O[C@@H]2C[C@H](Oc3cc4cc5c(c(O)c4c(O)c3C)C(=O)[C@@H](O[C@H]3C[C@@H](O[C@H]4C[C@@H](O[C@H]6C[C@](C)(O)[C@@H](OC(C)=O)[C@H](C)O6)[C@H](O)[C@@H](C)O4)[C@H](O)[C@@H](C)O3)[C@H]([C@H](OC)C(=O)[C@@H](O)[C@@H](C)O)C5)O[C@H](C)[C@@H]2OC(C)=O)O[C@@H]1C` [Chromomycin A3], under setting [1], the Molar volume is listed as 827.2 ± 5.0 cm^3.

With `C=Cc1cc(OC)c2c(c1)c(=O)oc1c2cc(OC)c2c(O)ccc([C@H]3O[C@@H](C)[C@@H](O)[C@](C)(O)[C@@H]3O)c21` [Chrysomycin A (MFCD07370133), Chrysomycin A], the Molar volume under setting [1] is reported as 361.7 ± 3.0 cm^3.

Regarding `COc1cc2c(oc(=O)c3cc(C)cc(OC)c32)c2c([C@@H]3O[C@H](C)[C@H](O)[C@@](C)(O)[C@H]3O)ccc(O)c12` [Chrysomycin B (MFCD07370132), Chrysomycin B], the Molar volume under setting [1] is on record as 352.0 ± 3.0 cm^3.

Take `Nc1nc(Cl)nc2c1ncn2[C@H]1C[C@H](O)[C@@H](CO)O1` [Cladribine]: the Molar volume (Table 2, anticancer drugs) is 140.1 ± 7.0 cm^3.

For `CC[C@H]1OC(=O)[C@H](C)[C@@H](O[C@H]2C[C@@](C)(OC)[C@@H](O)[C@H](C)O2)[C@H](C)[C@@H](O[C@@H]2O[C@H](C)C[C@H](N(C)C)[C@H]2O)[C@](C)(OC)C[C@@H](C)C(=O)[C@H](C)[C@@H](O)[C@]1(C)O` [Clarithromycin], the Molar volume under setting [1] is 631.9 ± 5.0 cm^3. In the case of `Nc1nc(Cl)nc2c1ncn2[C@@H]1O[C@H](CO)[C@@H](O)[C@@H]1F` [Clofarabine], for the setting “Table 2, anticancer drugs”, the Molar volume is 143.0 ± 7.0 cm^3. Regarding `CC(C)/N=c1\cc2n(-c3ccc(Cl)cc3)c3ccccc3nc-2cc1Nc1ccc(Cl)cc1` [Clofazimine], the Molar volume under setting [1] is 366.0 ± 7.0 cm^3.

As for `Clc1ccccc1C(c1ccccc1)(c1ccccc1)n1ccnc1` [Clotrimazole], the Molar volume under setting [1] was 302.7 ± 7.0 cm^3. Take `O=C(c1ccc(F)c(F)c1Nc1ccc(I)cc1F)N1CC(O)([C@@H]2CCCCN2)C1` [Cobimetinib]: the Molar volume (Table 2, anticancer drugs) is 311.3 ± 3.0 cm^3.
